Patent publication US10947196B2, “Beta adrenergic agonist and methods of using the same” (CURASEN THERAPEUTICS, INC., priority 2019, dated 2021)
Read-outs that look alike come from different tables or passages of the source.

Key:
β2 adrenergic receptor = β2 adrenergic receptor (Homo sapiens (Human), UniProt P07550); experiment: cAMP Gs dynamic HTRF assay, β2 expressing CHO cells; assay type: cell-based
Protocol: (§1) cAMP homogeneous time-resolved fluorescence (HTRF). Compound efficacy was determined using the cAMP Gs dynamic HTRF assay (Cisbio, catalog #62AM4PEC) largely following the manufacturer's instructions, also detailed below.
(§2) Compound preparation. […] Standard serial dilution curves were 10-point, 5-fold dilutions starting from a highest concentration of 10 μM. […] Assay plates were centrifuged at 500×g for 10 seconds. Compounds and IBMX were prepared at 2× final dose to compensate for addition of cells.
(§3) Cell preparation. 1× stimulation buffer, washing PBS (Dulbecco's phosphate-buffered saline, −Mg −Ca; Caisson Labs, catalog #PBL01), assay PBS (Dulbecco's phosphate-buffered saline, +Mg, +Ca; Caisson Labs, catalog #PBL02) and Versene (0.02% EDTA disodium salt solution in PBS without calcium or magnesium; Caisson Labs, catalog #EDL01) were pre-warmed to 37° C. Cells expressing beta-adrenergic receptor were washed in washing PBS to remove growth medium and then released from the surface by incubating with Versene for 5-10 minutes at 37° C. Cells were harvested using assay PBS, counted manually by hemocytometer or by an automated cell counter, pelleted by centrifugation (200×g, 5 minutes) and resuspended in 37° C. 1× stimulation buffer to a final density of 1.5×10^6 cells/mL. 5 μL of the suspended cell solution (7500 cell total) were added to all wells of the 384 well assay plate, the assay plate was covered with an Axygen® plate seal (Corning PCR-SP) and incubated in a humidified 37° C. environment supplemented with 5% CO2 for 30 minutes.
(§4) HTRF reagent addition, reading and data analysis. After 30 minutes of cell stimulation with test compound, the assay plates were centrifuged at 500×g for 10 seconds, and incubation was stopped with the addition of 5 μL cAMP-D2 acceptor, diluted 1:21 in detection and lysis buffer 2 (Cisbio 62CL2FDF) was added to all cells. Subsequently, 5 μL Anti-cAMP-Eu Donor, diluted 1:21 in detection and lysis buffer 2, was added to cells. Plates were sealed and reactions gently ‘vortexed’ at 900 rpm on a Heidolph Titramax 1000 for at least 30 minutes at room temperature. Plates were centrifuged again at 500×g for 10 seconds, and HTRF was measured using a Tecan Spark plate reader at 50 flashes per well. […] Potency estimates (EC50) were derived from the four-parameter nonlinear regression of the concentration-effect curve and an estimate of relative efficacy was determined by comparing the magnitude of the test compound HTRF signal window (min−max dose) with the signal window of the full agonist control, isoproterenol.

β1-adrenergic receptor = β1-adrenergic receptor (Homo sapiens (Human), UniProt P08588); experiment: cAMP Gs dynamic HTRF assay, β1 expressing CHO cells; assay type: cell-based
Sequence of β1-adrenergic receptor (P08588 whole entry, species assumed): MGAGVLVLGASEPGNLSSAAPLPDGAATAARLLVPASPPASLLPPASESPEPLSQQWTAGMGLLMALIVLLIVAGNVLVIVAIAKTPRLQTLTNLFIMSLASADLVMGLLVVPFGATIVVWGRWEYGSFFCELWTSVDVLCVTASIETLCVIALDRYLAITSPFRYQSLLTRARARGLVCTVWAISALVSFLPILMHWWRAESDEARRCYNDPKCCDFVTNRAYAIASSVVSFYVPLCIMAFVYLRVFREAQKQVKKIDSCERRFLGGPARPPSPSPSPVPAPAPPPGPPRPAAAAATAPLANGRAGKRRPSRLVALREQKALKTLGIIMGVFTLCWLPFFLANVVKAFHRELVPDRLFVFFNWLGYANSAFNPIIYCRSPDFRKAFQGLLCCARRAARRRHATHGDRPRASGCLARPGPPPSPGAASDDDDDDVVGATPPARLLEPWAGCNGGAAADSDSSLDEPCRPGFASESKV
Protocol: as §1, §2, §3, §4

[1] = B2-AR, CHO-K1 (HitHunter), read-out: Average pEC50 [Receptor subtype: B2-AR, Cell type: CHO-K1 (HitHunter)] (converted)
[2] = B1-AR, CHO-K1 (HitHunter), read-out: Average pEC50 [Receptor subtype: B1-AR, Cell type: CHO-K1 (HitHunter)] (converted)
[3] = B1-AR, CHO-K cells, read-out: Average EC50 [Receptor subtype: B1-AR, Cell type: CHO-K]
[4] = B2-AR, CHO-K cells, read-out: Average EC50 [Receptor subtype: B2-AR, Cell type: CHO-K]

Sequence of β2 adrenergic receptor (P07550 whole entry, species assumed): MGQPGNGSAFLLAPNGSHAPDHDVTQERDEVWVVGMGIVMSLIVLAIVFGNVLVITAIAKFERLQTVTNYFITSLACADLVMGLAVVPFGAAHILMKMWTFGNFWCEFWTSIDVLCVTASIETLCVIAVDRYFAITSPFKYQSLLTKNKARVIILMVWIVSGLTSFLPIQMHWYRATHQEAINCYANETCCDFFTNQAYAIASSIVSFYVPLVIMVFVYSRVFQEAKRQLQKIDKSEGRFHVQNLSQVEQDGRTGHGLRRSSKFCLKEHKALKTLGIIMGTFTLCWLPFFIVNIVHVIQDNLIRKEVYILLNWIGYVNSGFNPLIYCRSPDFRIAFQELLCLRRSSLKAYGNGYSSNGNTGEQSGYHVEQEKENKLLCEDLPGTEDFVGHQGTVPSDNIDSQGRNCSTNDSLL

Structure (SMILES): Cc1cc([C@@H](O)CNC(C)(C)C)ccn1 [Compound 03-108]
- EC50 (β2 adrenergic receptor; [1]): > 1000 nM

Structure (SMILES): CC(C)(C)NC[C@H](O)c1ccnc(C#N)c1 [Compound 03-110]
- EC50 (β1-adrenergic receptor; [2]): > 1000 nM
- EC50 (β2 adrenergic receptor; [1]): > 1000 nM

Structure (SMILES): CC(C)(C)NC[C@@H](O)c1cccc(-c2ccccc2F)n1 [Compound 03-156]
- EC50 (β1-adrenergic receptor; [2]): > 1000 nM
- EC50 (β1-adrenergic receptor; [3]): > 1000 nM
- EC50 (β2 adrenergic receptor; [1]): 10 to 100 nM
- EC50 (β2 adrenergic receptor; [4]): 10 to 100 nM

Structure (SMILES): CC(C)(C)NC[C@@H](O)c1ccc2ccccc2n1 [Compound 03-166]
- EC50 (β1-adrenergic receptor; [3]): 100 to 1000 nM
- EC50 (β2 adrenergic receptor; [4]): 100 to 1000 nM

Structure (SMILES): CC(C)(C)NCC(O)c1cccnc1Cl (stereo not drawn) [Compound 03-114]
- EC50 (β1-adrenergic receptor; [2]): 100 to 1000 nM
- EC50 (β1-adrenergic receptor; [3]): 100 to 1000 nM
- EC50 (β2 adrenergic receptor; [1]): 10 to 100 nM
- EC50 (β2 adrenergic receptor; [4]): 10 to 100 nM

Structure (SMILES): Cc1cccnc1[C@@H](O)CNC(C)(C)C [Compound 03-4]
- EC50 (β1-adrenergic receptor; cAMP HTRF, read-out: β1 EC50): > 1000 nM
- EC50 (β2 adrenergic receptor; cAMP HTRF, read-out: β2 EC50): > 1000 nM

Structure (SMILES): CC(C)(C)NC[C@@H](O)c1cccc(NC2CC2)n1 [Compound 03-250]
- EC50 (β1-adrenergic receptor; [2]): > 1000 nM
- EC50 (β2 adrenergic receptor; [1]): 100 to 1000 nM

Structure (SMILES): CC(C)(C)NC[C@@H](O)c1cccc(C2=CCCC2)n1 [Compound 03-234]
- EC50 (β1-adrenergic receptor; [2]): 10 to 100 nM
- EC50 (β2 adrenergic receptor; [1]): 10 to 100 nM

Structure (SMILES): CC(C)(C)NC[C@@H](O)c1cccc(C(C)(F)F)n1 [Compound 03-170]
- Average pEC50 [Receptor subtype: B1-AR; Cell type: CHO-K1 (HitHunter)] (β1-adrenergic receptor; B1-AR, CHO-K1 (HitHunter)): D (D < 6)
- EC50 (β1-adrenergic receptor; [3]): > 1000 nM
- EC50 (β2 adrenergic receptor; [1]): 100 to 1000 nM
- EC50 (β2 adrenergic receptor; [4]): 100 to 1000 nM

Structure (SMILES): CC(C)(C)NC[C@H](O)c1cccc(C2=NCCN2)n1 [Compound 03-86]
- EC50 (β1-adrenergic receptor; [2]): > 1000 nM
- EC50 (β2 adrenergic receptor; [1]): 100 to 1000 nM

Structure (SMILES): O[C@H](CNC1Cc2ccccc2C1)c1cccc(C(F)(F)F)n1 [Compound 03-22]
- EC50 (β1-adrenergic receptor; [2]): > 1000 nM
- EC50 (β1-adrenergic receptor; [3]): > 1000 nM
- EC50 (β2 adrenergic receptor; [1]): > 1000 nM
- EC50 (β2 adrenergic receptor; [4]): > 1000 nM

Structure (SMILES): CC(C)(C)NC[C@@H](O)c1cccc(N2CC3CCCC3C2)n1 (stereo partly drawn) [Compound 03-136]
- EC50 (β2 adrenergic receptor; [1]): 10 to 100 nM
- EC50 (β2 adrenergic receptor; [4]): 10 to 100 nM

Structure (SMILES): [2H]C([2H])([2H])Nc1cccc([C@@H](O)CNC(C)(C)C)n1 [Compound 03-279]
- EC50 (β1-adrenergic receptor; [2]): > 1000 nM
- EC50 (β2 adrenergic receptor; [1]): 100 to 1000 nM

Structure (SMILES): CC(C)(C)NC[C@H](O)c1cccnc1C(C)(C)C [Compound 03-79]
- EC50 (β2 adrenergic receptor; [1]): > 1000 nM

Structure (SMILES): CC(C)(C)NC[C@H](O)c1cccc(-c2cnn[nH]2)n1 [Compound 03-200]
- EC50 (β1-adrenergic receptor; [2]): 10 to 100 nM
- EC50 (β2 adrenergic receptor; [1]): < 10 nM

Structure (SMILES): Cc1ccc([C@@H](O)CNC(C)(C)C)c(C2CCCC2)n1 [Compound 03-65]
- EC50 (β1-adrenergic receptor; [2]): > 1000 nM
- EC50 (β2 adrenergic receptor; [1]): 10 to 100 nM

Structure (SMILES): C#Cc1ncccc1[C@@H](O)CNC(C)(C)C [Compound 03-75]
- EC50 (β1-adrenergic receptor; [2]): > 1000 nM
- EC50 (β2 adrenergic receptor; [1]): > 1000 nM

Structure (SMILES): Cc1cccc(-c2cccc([C@@H](O)CNC(C)(C)C)n2)c1 [Compound 03-147]
- EC50 (β1-adrenergic receptor; [2]): 10 to 100 nM
- EC50 (β1-adrenergic receptor; [3]): 10 to 100 nM
- EC50 (β2 adrenergic receptor; [1]): < 10 nM
- EC50 (β2 adrenergic receptor; [4]): < 10 nM

Structure (SMILES): COc1ccc(C[C@@H](C)NC[C@H](O)c2ccc(NC3CC3)nc2C)cc1 [Compound 03-275]
- EC50 (β1-adrenergic receptor; Average pEC50 [Receptor subtype: B1-AR, Cell type: CHO-K1 (HitHunter)], B1-AR, CHO-K1 (HitHunter)): > 1000 nM
- EC50 (β2 adrenergic receptor; Average pEC50 [Receptor subtype: B2-AR, Cell type: CHO-K1 (HitHunter)], B2-AR, CHO-K1 (HitHunter)): 10 to 100 nM

Structure (SMILES): CC(C)c1ncccc1[C@@H](O)CNC(C)(C)C [Compound 03-51]
- Average pEC50 [Receptor subtype: B1-AR; Cell type: CHO-K1 (HitHunter)] (β1-adrenergic receptor; B1-AR, CHO-K1 (HitHunter)): D (D < 6)
- EC50 (β1-adrenergic receptor; [3]): > 1000 nM
- EC50 (β2 adrenergic receptor; [1]): > 1000 nM
- EC50 (β2 adrenergic receptor; [4]): > 1000 nM

Structure (SMILES): CC(C)NC[C@@H](O)c1cccc(C(F)(F)F)n1 [Compound 03-36]
- EC50 (β1-adrenergic receptor; [2]): > 1000 nM
- EC50 (β1-adrenergic receptor; [3]): > 1000 nM
- EC50 (β2 adrenergic receptor; [1]): > 1000 nM
- EC50 (β2 adrenergic receptor; [4]): > 1000 nM

Structure (SMILES): CC(C)Nc1cccc([C@H](O)CNC(C)(C)C)n1 [Compound 03-232]
- EC50 (β1-adrenergic receptor; [2]): 10 to 100 nM
- EC50 (β2 adrenergic receptor; [1]): 10 to 100 nM

Structure (SMILES): CCN(CC)c1cccc([C@@H](O)CNC(C)(C)C)n1 [Compound 03-159]
- EC50 (β1-adrenergic receptor; [2]): 10 to 100 nM
- EC50 (β1-adrenergic receptor; [3]): 10 to 100 nM

Structure (SMILES): CC(C)(C)NC[C@H](O)c1cccc(N2CCOCC2)n1 [Compound 03-157]
- Average pEC50 [Receptor subtype: B1-AR; Cell type: CHO-K1 (HitHunter)] (β1-adrenergic receptor; B1-AR, CHO-K1 (HitHunter)): A (A > 8)
- EC50 (β1-adrenergic receptor; [3]): < 10 nM
- EC50 (β2 adrenergic receptor; [1]): < 10 nM
- EC50 (β2 adrenergic receptor; [4]): < 10 nM

Structure (SMILES): CC(C)(C)NC[C@H](O)c1cccc(-c2ccccc2)n1 [Compound 03-28]
- EC50 (β1-adrenergic receptor; [2]): 10 to 100 nM
- EC50 (β1-adrenergic receptor; [3]): 10 to 100 nM
- EC50 (β2 adrenergic receptor; [1]): < 10 nM
- EC50 (β2 adrenergic receptor; [4]): < 10 nM

Structure (SMILES): Cn1ccc(-c2cccc([C@@H](O)CNC(C)(C)C)n2)n1 [Compound 03-216]
- EC50 (β1-adrenergic receptor; [2]): > 1000 nM
- EC50 (β2 adrenergic receptor; [1]): 10 to 100 nM

Structure (SMILES): CC(C)(C)NC[C@@H](O)c1ccc(C#N)cn1 [Compound 03-222]
- EC50 (β2 adrenergic receptor; [1]): > 1000 nM

Structure (SMILES): CC(C)(C)NC[C@H](O)c1cccc(-c2ccc(Cl)cc2)n1 [Compound 03-119]
- Average pEC50 [Receptor subtype: B1-AR; Cell type: CHO-K1 (HitHunter)] (β1-adrenergic receptor; B1-AR, CHO-K1 (HitHunter)): C (C = <7-6)
- EC50 (β1-adrenergic receptor; [3]): 100 to 1000 nM

Structure (SMILES): CC(C)(C)NC[C@H](O)c1cc(C(F)(F)F)cnc1C1CCCC1 [Compound 03-78]
- EC50 (β1-adrenergic receptor; [2]): < 10 nM
